From US20250115600A1, “COVALENT MODIFIERS OF AKT1 AND USES THEREOF” (Terremoto Biosciences, Inc., priority 2022, published 2025)

Columns and labels:
Assay in all cases: Live cell target engagement (NanoBRET) in HEK293 cells
Format in all cases: cell-based
AKT1 WT = AKT1 WT (Homo sapiens (Human), UniProt P31749); details: HEK293, 2 hours at 37° C.
AKT2 = AKT2 (Homo sapiens (Human), UniProt P31751); details: HEK293, 2 hours at 37° C.
AKT1 E17K = AKT1 E17K (Homo sapiens (Human), UniProt P31749, E17K); details: for IC50: HEK293, 2 hours at 37° C.
Sequence of AKT1 E17K (P31749 whole entry E17K): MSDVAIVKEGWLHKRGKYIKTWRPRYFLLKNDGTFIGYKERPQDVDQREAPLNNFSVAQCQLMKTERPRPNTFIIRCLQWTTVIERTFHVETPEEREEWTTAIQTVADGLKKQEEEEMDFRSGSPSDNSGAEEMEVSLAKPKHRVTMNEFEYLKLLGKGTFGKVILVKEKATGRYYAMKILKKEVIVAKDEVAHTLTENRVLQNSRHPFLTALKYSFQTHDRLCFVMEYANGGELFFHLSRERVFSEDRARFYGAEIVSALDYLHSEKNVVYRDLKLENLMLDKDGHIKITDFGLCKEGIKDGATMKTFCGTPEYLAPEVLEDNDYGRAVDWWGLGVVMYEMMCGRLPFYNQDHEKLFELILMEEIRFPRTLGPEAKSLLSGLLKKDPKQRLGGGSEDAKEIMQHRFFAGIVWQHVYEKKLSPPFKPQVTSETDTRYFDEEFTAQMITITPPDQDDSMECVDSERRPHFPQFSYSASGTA

Sequence of AKT1 WT (P31749 whole entry): as the sequence (P31749 whole entry E17K) above, with K17E counted along it
Sequence of AKT2 (P31751 whole entry): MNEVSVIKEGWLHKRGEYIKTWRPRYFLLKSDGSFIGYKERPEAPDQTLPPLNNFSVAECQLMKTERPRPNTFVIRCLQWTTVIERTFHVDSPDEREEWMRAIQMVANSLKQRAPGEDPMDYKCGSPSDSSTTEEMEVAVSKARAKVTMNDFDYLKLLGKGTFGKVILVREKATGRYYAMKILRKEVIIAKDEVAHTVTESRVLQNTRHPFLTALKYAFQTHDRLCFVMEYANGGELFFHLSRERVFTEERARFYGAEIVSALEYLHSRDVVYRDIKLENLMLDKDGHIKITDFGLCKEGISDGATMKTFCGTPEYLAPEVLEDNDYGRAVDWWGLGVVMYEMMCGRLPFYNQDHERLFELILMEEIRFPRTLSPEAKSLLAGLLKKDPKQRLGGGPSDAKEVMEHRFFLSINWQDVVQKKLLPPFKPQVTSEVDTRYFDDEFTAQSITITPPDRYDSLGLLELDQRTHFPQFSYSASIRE

Row | Compound | IC50 (AKT1 WT) | IC50 (AKT2) | AKT1 E17K IC50: Selectivity vs AKT1 WT (AKT1 E17K) | AKT1 E17K IC50: Selectivity vs AKT2 (AKT1 E17K) | IC50 (AKT1 E17K)
1 | CN(Cc1ccc(-n2c(-c3cccnc3N)nc3ccc(-c4ccccc4)nc32)cc1)C(=O)Cc1ccc(C=O)c(O)c1 [Compound 64, N-(4-(2-(2-aminopyridin-3-yl)-5-phenyl-3H-imidazo[4,5-b]pyridin-3-yl)benzyl)-2-(4-formyl-3-hydroxyphenyl)-N-methylacetamide] | < 100 nM | 100 to 500 nM | 0.5 | 2 | < 100 nM
2 | Nc1ncccc1-c1nc2ccc(-c3cccc(N4CCC(N5CCCC5=O)CC4)c3F)nc2n1-c1ccc(CNC(=O)Cc2ccc(C=O)c(O)c2)cc1 [Compound 42, N-({4-[2-(2-aminopyridin-3-yl)-5-{2-fluoro-3-[4-(2-oxopyrrolidin-1-yl)piperidin-1-yl]phenyl}imidazo[4,5-b]pyridin-3-yl]phenyl}methyl)-2-(4-formyl-3-hydroxyphenyl)acetamide] | < 100 nM | < 100 nM | 1.7 | 4.8 | < 100 nM
3 | CC(=O)N(C)C1CCN(c2cccc(-c3ccc4nc(-c5cccnc5N)n(-c5ccc(CNCCc6ccc(C=O)c(O)c6)cc5)c4n3)c2)CC1 [Compound 109, N-(1-{3-[2-(2-aminopyridin-3-yl)-3-[4-({[2-(4-formyl-3-hydroxyphenyl)ethyl]amino}methyl)phenyl]imidazo[4,5-b]pyridin-5-yl]phenyl}piperidin-4-yl)-N-methylacetamide] | < 100 nM | < 100 nM | 0.63 | 0.6 | < 100 nM
4 | CN(C(=O)CCc1ccc(C=O)c(O)c1)c1ccc(-n2c(-c3cccnc3N)nc3ccc(-c4ccccc4)nc32)cc1 [Compound 100, N-(4-(2-(2-aminopyridin-3-yl)-5-phenyl-3H-imidazo[4,5-b]pyridin-3-yl)phenyl)-3-(4-formyl-3-hydroxyphenyl)-N-methylpropanamide] | 100 to 500 nM | > 500 nM | 1.9 | 13 | 100 to 500 nM
5 | Nc1ncccc1-c1nc2ccc(-c3ccccc3)nc2n1-c1ccc(CNC(=O)C(F)c2ccc(C=O)c(O)c2)cc1 (stereo not drawn) [Compound 65, N-({4-[2-(2-aminopyridin-3-yl)-5-phenylimidazo[4,5-b]pyridin-3-yl]phenyl}methyl)-2-fluoro-2-(4-formyl-3-hydroxyphenyl)acetamide] | < 100 nM | 100 to 500 nM | 1.2 | 37 | < 100 nM
6 | Nc1ncccc1-c1nc2cccnc2n1-c1ccc(CNC(=O)Cc2ccc(C=O)c(NC(=O)C3CC3)c2)cc1 [Compound 48, N-(5-(2-((4-(2-(2-aminopyridin-3-yl)-3H-imidazo[4,5-b]pyridin-3-yl)benzyl)amino)-2-oxoethyl)-2-formylphenyl)cyclopropanecarboxamide] | 100 to 500 nM | > 500 nM | 8.5 | 120 | < 100 nM
7 | CC(=O)Nc1cccc(-c2ccc3nc(-c4cccnc4N)n(-c4ccc(CNCCc5ccc(C=O)c(O)c5)cc4)c3n2)c1 [Compound 121, N-{3-[2-(2-aminopyridin-3-yl)-3-[4-({[2-(4-formyl-3-hydroxyphenyl)ethyl]amino}methyl)phenyl]imidazo[4,5-b]pyridin-5-yl]phenyl}acetamide] | < 100 nM | 100 to 500 nM | 2 | 6.2 | < 100 nM
8 | Nc1ncccc1-c1nc2ccc(-c3ccccc3)nc2n1-c1ccc(CNC(=O)Cc2ccc(C=O)c(O)c2C(F)(F)F)cc1 [Example 5, N-(4-(2-(2-aminopyridin-3-yl)-5-phenyl-3H-imidazo[4,5-b]pyridin-3-yl)benzyl)-2-(4-formyl-3-hydroxy-2-(trifluoromethyl)phenyl)acetamide] | < 100 nM | > 500 nM | 2.9 | 32 | < 100 nM
9 | CC(C)(C)c1cc(C(=O)NCc2ccc(-n3c(-c4cccnc4N)nc4ccc(-c5ccccc5)nc43)cc2)cc(C=O)c1O [Compound 41, N-(4-(2-(2-aminopyridin-3-yl)-5-phenyl-3H-imidazo[4,5-b]pyridin-3-yl)benzyl)-3-(tert-butyl)-5-formyl-4-hydroxybenzamide] | > 500 nM | > 500 nM | 0.24 | 0.77 | > 500 nM
10 | Nc1ncccc1-c1nc2cccnc2n1-c1ccc(CCC(=O)Nc2ccc(C=O)c(O)c2)cc1 [Compound 86, 3-(4-(2-(2-aminopyridin-3-yl)-3H-imidazo[4,5-b]pyridin-3-yl)phenyl)-N-(4-formyl-3-hydroxyphenyl)propanamide] | > 500 nM | > 500 nM | 25 | 74 | < 100 nM
11 | Nc1ncccc1-c1nc2ccc(-c3ccccc3)nc2n1-c1ccc(C(=O)NCC#Cc2ccc(C=O)c(O)c2)cc1 [Compound 104, 4-(2-(2-aminopyridin-3-yl)-5-phenyl-3H-imidazo[4,5-b]pyridin-3-yl)-N-(3-(4-formyl-3-hydroxyphenyl)prop-2-yn-1-yl)benzamide] | > 500 nM | > 500 nM | 0.72 | 1 | > 500 nM

The next lines start with the values.

Row | IC50 (AKT1 WT) | IC50 (AKT2) | AKT1 E17K IC50: Selectivity vs AKT1 WT (AKT1 E17K) | AKT1 E17K IC50: Selectivity vs AKT2 (AKT1 E17K) | IC50 (AKT1 E17K) | Compound
12 | 100 to 500 nM | > 500 nM | 2.7 | 13 | 100 to 500 nM | CN(CCc1ccc(C=O)c(O)c1)C(=O)c1ccc(-n2c(-c3cccnc3N)nc3ccc(-c4ccccc4)nc32)cc1 [Compound 57, 4-[2-(2-aminopyridin-3-yl)-5-phenylimidazo[4,5-b]pyridin-3-yl]-N-[2-(4-formyl-3-hydroxyphenyl)ethyl]-N-methylbenzamide]
13 | < 100 nM | 100 to 500 nM | 2.5 | 11 | < 100 nM | Nc1ncccc1-c1nc2ccc(-c3ccccn3)nc2n1-c1ccc(CNCCc2ccc(C=O)c(O)c2)cc1 [Compound 103, 4-{2-[({4-[2-(2-aminopyridin-3-yl)-5-(pyridin-2-yl)imidazo[4,5-b]pyridin-3-yl]phenyl}methyl)amino]ethyl}-2-hydroxybenzaldehyde]
14 | 100 to 500 nM | > 500 nM | 3.1 | 19 | < 100 nM | CC(=O)Nc1cccc(-c2ccc3nc(-c4cccnc4N)n(-c4ccc(CNC(=O)Cc5ccc(C=O)c(O)c5)cc4)c3n2)c1 [Example 2, N-(4-(5-(3-acetamidophenyl)-2-(2-aminopyridin-3-yl)-3H-imidazo[4,5-b]pyridin-3-yl)benzyl)-2-(4-formyl-3-hydroxyphenyl)acetamide]
15 | 100 to 500 nM | > 500 nM | 10 | 99 | < 100 nM | Nc1ncccc1-c1nc2cccnc2n1-c1ccc(CNC(=O)c2ccc(O)c(C=O)c2)cc1 [Compound 83, N-({4-[2-(2-aminopyridin-3-yl)imidazo[4,5-b]pyridin-3-yl]phenyl}methyl)-3-formyl-4-hydroxybenzamide]
16 | 100 to 500 nM | > 500 nM | 2.5 | 57 | < 100 nM | Nc1ncccc1-c1nc2ccc(-c3cccnc3)nc2n1-c1ccc(CNCCc2ccc(C=O)c(O)c2)cc1 [Compound 113, 4-(2-((4-(2-(2-aminopyridin-3-yl)-5-(pyridin-3-yl)-3H-imidazo[4,5-b]pyridin-3-yl)benzyl)amino)ethyl)-2-hydroxybenzaldehyde]
17 | < 100 nM | > 500 nM | 4 | 150 | < 100 nM | Nc1ncccc1-c1nc2ccc(-c3cccnc3)nc2n1-c1ccc(CNC(=O)Cc2ccc(C=O)c(O)c2)cc1 [Compound 68, N-(4-(2-(2-aminopyridin-3-yl)-5-(pyridin-3-yl)-3H-imidazo[4,5-b]pyridin-3-yl)benzyl)-2-(4-formyl-3-hydroxyphenyl)acetamide]
18 | < 100 nM | < 100 nM | 1.7 | 4.9 | < 100 nM | Nc1ncccc1-c1nc2ccc(-c3cccc(N4CCOCC4)c3)nc2n1-c1ccc(CCNCc2ccc(C=O)c(O)c2)cc1 [Example 19, 4-(((4-(2-(2-aminopyridin-3-yl)-5-(3-morpholinophenyl)-3H-imidazo[4,5-b]pyridin-3-yl)phenethyl)amino)methyl)-2-hydroxybenzaldehyde]
19 | 100 to 500 nM | > 500 nM | 1.1 | 2 | 100 to 500 nM | CC(=O)Nc1cccc(-c2ccc3nc(-c4cccnc4N)n(-c4ccc(CNCCc5ccc(C=O)c(O)c5F)cc4)c3n2)c1 [Compound 102, N-{3-[2-(2-aminopyridin-3-yl)-3-[4-({[2-(2-fluoro-4-formyl-3-hydroxyphenyl)ethyl]amino}methyl)phenyl]imidazo[4,5-b]pyridin-5-yl]phenyl}acetamide]
20 | 100 to 500 nM | > 500 nM | 3.9 | 50 | < 100 nM | Nc1ncccc1-c1nc2cccnc2n1-c1ccc(CNC(=O)Cc2ccc(C=O)c(O)c2F)cc1 [Compound 93, N-({4-[2-(2-aminopyridin-3-yl)imidazo[4,5-b]pyridin-3-yl]phenyl}methyl)-2-(2-fluoro-4-formyl-3-hydroxyphenyl)acetamide]
21 | 100 to 500 nM | > 500 nM | 2 | 13 | < 100 nM | Nc1ncccc1-c1nc2ccc(-c3ccccc3)nc2n1-c1ccc(CNC(=O)c2ccc(O)c(C=O)c2F)cc1 [Example 15, N-(4-(2-(2-aminopyridin-3-yl)-5-phenyl-3H-imidazo[4,5-b]pyridin-3-yl)benzyl)-2-fluoro-3-formyl-4-hydroxybenzamide]
